# Data from article PMC3146814, “The crystal structure of alanine racemase from Streptococcus pneumoniae, a target for structure-based drug design” (BMC Microbiology, 2011).
# T1: alanine racemase from S. pneumoniae (AlrSP) (Streptococcus pneumoniae, UniProt P0A2W8)
# T1 construct: gene alr; untagged as far as told, gene in pET17, E. coli BL21(DE3) pLysS; monomer residues 1-367; homodimer; Lys129 carbamylated
# T1 sequence (P0A2W8 1-367): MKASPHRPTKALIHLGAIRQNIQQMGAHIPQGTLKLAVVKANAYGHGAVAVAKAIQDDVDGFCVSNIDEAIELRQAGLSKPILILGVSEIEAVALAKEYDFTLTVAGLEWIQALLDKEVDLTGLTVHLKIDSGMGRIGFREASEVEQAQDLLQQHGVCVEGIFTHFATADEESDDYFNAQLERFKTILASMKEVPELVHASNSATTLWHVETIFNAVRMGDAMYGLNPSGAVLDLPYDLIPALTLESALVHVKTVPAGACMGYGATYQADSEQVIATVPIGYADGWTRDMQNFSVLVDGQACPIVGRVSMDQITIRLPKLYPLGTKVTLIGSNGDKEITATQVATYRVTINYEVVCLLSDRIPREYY
# B1: alanine racemase from Streptococcus pneumoniae (enzyme, UniProt P0A2W8 1-367, looked up)
# chain: MKASPHRPTKALIHLGAIRQNIQQMGAHIPQGTLKLAVVKANAYGHGAVAVAKAIQDDVDGFCVSNIDEAIELRQAGLSKPILILGVSEIEAVALAKEYDFTLTVAGLEWIQALLDKEVDLTGLTVHLKIDSGMGRIGFREASEVEQAQDLLQQHGVCVEGIFTHFATADEESDDYFNAQLERFKTILASMKEVPELVHASNSATTLWHVETIFNAVRMGDAMYGLNPSGAVLDLPYDLIPALTLESALVHVKTVPAGACMGYGATYQADSEQVIATVPIGYADGWTRDMQNFSVLVDGQACPIVGRVSMDQITIRLPKLYPLGTKVTLIGSNGDKEITATQVATYRVTINYEVVCLLSDRIPREYY
# modifications: PLP covalently bound to Lys40 by an internal aldimine bond (N'-pyridoxyl-lysine-5'-monophosphate, LLP); carbamylated Lys129
# notes: alanine racemase (E.C. 5.1.1.1) of Streptococcus pneumoniae; the gene was cloned into pET17; the model holds residues 1-367 of each monomer (734 residues, 100%): alpha/beta barrel domain 1-238 and beta-strand domain 239-367; no tag is named; also called AlrSP; Alr
# Experiments:
# [1] = molecular target: T1, alanine racemase from S. pneumoniae (AlrSP); assay: X-ray crystallography, […] Å; assay type: binding; settings: covalent; internal aldimine with Lys40 (LLP residue); active site; crystals grown at pH 7.2, 4 °C
# [2] = molecular target: the molecule itself; assay: crystal structure; sitting drop vapor diffusion at 4°C, 1.2 M Na citrate, 0.1 M MES pH 7.2, 10% glycerol, protein 23 mg/ml; space group P3(1)21, two monomers in the asymmetric unit; 2.0 Å
Molecule,"X-ray crystallography, 2.0 Å [1]",stoichiometry N [2]
Cc1ncc(COP(=O)(O)O)c(C=O)c1O [pyridoxal phosphate (PLP)],The pyridoxal phosphate (PLP) cofactor is connected to Lys40 through an internal aldimine bond,–
B1,–,2
